K cat and Ratio data for 2 compounds are collected here from ChEMBL document CHEMBL1135258, “Substrate spectrum of tyrocidine thioesterase probed with randomized peptide N-acetylcysteamine thioesters” (Bioorg Med Chem Lett, 2002).

In experiment [1] the target is T1, Thioesterase GrsT homolog tycF (Brevibacillus brevis) (UniProt O30412).
T1 sequence (whole entry): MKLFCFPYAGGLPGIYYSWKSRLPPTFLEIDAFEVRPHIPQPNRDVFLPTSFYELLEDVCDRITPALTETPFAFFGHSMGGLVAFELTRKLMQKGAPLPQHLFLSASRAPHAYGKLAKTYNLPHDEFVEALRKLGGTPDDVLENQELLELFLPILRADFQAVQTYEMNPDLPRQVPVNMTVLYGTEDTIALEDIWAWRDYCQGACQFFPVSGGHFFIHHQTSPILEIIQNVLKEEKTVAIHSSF
The experiment can be described thus: Apparent kinetic constant (Kcat) for tyrocidine thioesterase amplified from Bacillus brevis (ATCC8185).

The target of experiment [2] is T1, Thioesterase GrsT homolog tycF (Brevibacillus brevis). The experiment can be described thus: Catalytic efficiency (Kcat/Km) was determined. Also noted: unit not given here.

Consider `CC(=O)NCCSC(=O)[C@H](CC(C)C)NC(=O)[C@H](CCCN)NC(=O)[C@@H](NC(=O)[C@H](Cc1ccc(O)cc1)NC(=O)[C@H](CCC(N)=O)NC(=O)[C@H](CC(N)=O)NC(=O)[C@@H]1CCCN1C(=O)[C@H](Cc1ccccc1)NC(=O)[C@@H]1CCCN1C(=O)[C@H](N)Cc1ccccc1)C(C)C`, for which the k cat in experiment [1] is 0.25 s⁻¹. Besides, in experiment [2], the Ratio was determined as 0.11.
The corresponding values for `CC(=O)NCCSC(=O)[C@H](CC(C)C)NC(=O)[C@H](CCCN)NC(=O)[C@@H](NC(=O)[C@H](Cc1ccc(O)cc1)NC(=O)[C@H](CCC(N)=O)NC(=O)[C@H](CC(N)=O)NC(=O)[C@H](CC(=O)O)NC(=O)[C@H](Cc1ccccc1)NC(=O)[C@@H]1CCCN1C(=O)[C@H](N)Cc1ccccc1)C(C)C` are 0.233 s⁻¹ and 0.058.
